Data from ChEMBL document CHEMBL1127272, “2-Aryl-1-azabicyclo[2.2.2]octanes as novel nonpeptide substance P antagonists” (Bioorg Med Chem Lett, 1994).

Tests used:
Substance-P receptor [1] = target: T1, Substance-P receptor (Homo sapiens, UniProt P25103); assay: Inhibitory concentration for displacement of [3H]-Substance P (SP) in human IM-9 cells; assay type: cell-based
Substance-P receptor [2] = target: T1, Substance-P receptor; assay: Tested for Tachykinin receptor 1 antagonistic activity in dog isolated carotid artery(DCA) system at a concentration of 5*10e-6 M; assay type: functional; conditions: Canis lupus familiaris; target entry is the homologue from another species

T1 sequence (P25103 whole entry): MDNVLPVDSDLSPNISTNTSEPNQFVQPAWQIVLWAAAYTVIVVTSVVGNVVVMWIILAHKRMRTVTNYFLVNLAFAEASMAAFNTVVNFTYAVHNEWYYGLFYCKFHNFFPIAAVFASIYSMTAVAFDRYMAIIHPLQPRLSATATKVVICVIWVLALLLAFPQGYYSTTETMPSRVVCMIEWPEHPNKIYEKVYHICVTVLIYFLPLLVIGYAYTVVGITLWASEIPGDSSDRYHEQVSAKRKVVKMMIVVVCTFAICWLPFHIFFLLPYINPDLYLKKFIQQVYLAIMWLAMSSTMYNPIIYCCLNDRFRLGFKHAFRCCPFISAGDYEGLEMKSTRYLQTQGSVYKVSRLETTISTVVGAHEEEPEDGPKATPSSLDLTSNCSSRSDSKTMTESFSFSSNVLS

Row | Structure (SMILES) | IC50 (Substance-P receptor [1]) | pKB (Substance-P receptor [2])
1 | COc1ccccc1CN[C@@H]1C2CCN(CC2)[C@H]1c1ccccc1 | 700 nM | 
2 | COc1ccc(CN[C@H]2C3CCN(CC3)[C@H]2c2cccc(Cl)c2)c(OC)c1 |  | 7
3 | COc1ccc(CN[C@H]2C3CCN(CC3)[C@@H]2c2cccc(Cl)c2)c(OC)c1 | 350 nM | 
4 | Clc1cccc([C@H]2[C@@H](NCc3ccccc3Cl)C3CCN2CC3)c1 | 230 nM | 
5 | COc1ccc(CN[C@@H]2C3CCN(CC3)[C@@H]2c2cccc(Cl)c2)c(OC)c1 (single isomer, unassigned) | 39 nM | 
6 | COc1ccccc1CN[C@H]1C2CCN(CC2)[C@H]1c1cccc(Cl)c1 | 20 nM | 
7 | COc1cccc([C@H]2[C@@H](NCc3ccccc3OC)C3CCN2CC3)c1 | 160 nM | 
8 | COc1ccccc1CN[C@@H]1C2CCN(CC2)[C@H]1c1cccc(Cl)c1 | 240 nM | 
9 | COc1ccccc1CN[C@H]1C2CCN(CC2)[C@H]1c1ccccc1 | 140 nM | 
